# Data taken from patent US11000601B2, “Conjugated biological molecules, pharmaceutical compositions and methods” (OBI Pharma, Inc., priority 2016, dated 2021).
# Values joined by “and” are separate entries in the source; they are usually repeats but may differ in a detail not shown here. Equal entries are not always repeated. Square brackets hold non-standard residues; d marks the D form. Peptide text beside a SMILES is read from it. * marks the point of attachment. Dolaproine = CO[C@@H]([C@@H]1CCCN1)[C@@H](C)C(=O)O; Dil = CC[C@H](C)[C@H](NC)[C@@H](CC(=O)O)OC; X1 = C[C@@H](N*)[C@@H](O)c1ccccc1; NMeV = CN[C@H](C(=O)O)C(C)C
# How the values were obtained:
# [1] = test system: HPAC tumor cells (ATCC CRL-2119) human pancreatic cancer; assay: HPAC human pancreatic cancer xenograft model in male BALB/c nude mice: tumor volume, T/C, TGI; type: in vivo; conditions: for Tumor Volume (mm^3), Mean: group mean; for Tumor Volume (mm^3), Mean / Tumor Volume (mm^3): QW x 4, ADC (OBI-999) and OBI-888 10 mg/kg IV, MMAE 0.191 mg/kg IP; for Tumor Volume (mm^3): individual animals
# Protocol: The HPAC tumor cells (ATCC CRL-2119) were maintained in vitro as a monolayer culture in 1:1 mixture of Dulbecco's modified Eagle's medium and Ham's F12 medium containing 1.2 g/L sodium bicarbonate, 2.5 mM L-glutamine, 15 mM HEPES and 0.5 mM sodium pyruvate supplemented with 0.002 mg/mL insulin, 0.005 mg/mL transferrin, 40 ng/mL hydrocortisone, 10 ng/mL epidermal growth factor and 5% fetal bovine serum, 100 U/mL penicillin and 100 μg/mL streptomycin at 37° C. in an atmosphere of 5% CO2 in air. The tumor cells were routinely subcultured twice weekly by trypsin-EDTA treatment. The cells growing in an exponential growth phase were harvested and counted for tumor inoculation.
# The endpoint was to determine the anti-tumor effects of testing compounds. Tumor size was measured twice weekly in two dimensions using a caliper, and the volume was expressed in mm^3 using the formula: V=0.5 a×b^2 where a and b are the long and short diameters of the tumor, respectively. The tumor size was then used for calculation of T/C values. The T/C value (in percent) is an indication of antitumor effectiveness; T and C are the mean volumes of the treated and control groups, respectively, on a given day. TGI was calculated for each group using the formula: TGI (%)=[1−(Ti−T0)/(Vi−V0)]×100; Ti is the average tumor volume of a treatment group on a given day, T0 is the average tumor volume of the treatment group on day 0, Vi is the average tumor volume of the vehicle control group on the same day with Ti, and V0 is the average tumor volume of the vehicle group on day 0.
# Summary statistics, including mean and the standard error of the mean (SEM), are provided for the tumor volume of each group at each time point. Statistical analysis of difference in the tumor volume among the groups were conducted on the data obtained at the best therapeutic time point after the final dose (the 37th day after grouping). A one-way ANOVA was performed to compare the tumor volume among groups, and when a significant F-statistics (a ratio of treatment variance to the error variance) was obtained, comparisons between groups were carried out with Games-Howell test, otherwise they were carried out with Dunnett (2 sided) test. […] All data were analyzed using SPSS 17.0. p<0.05 was considered to be statistically significant.
# [2] = Body weight, mortality and signs of overt toxicity in NCI-N87 implanted female nu/nu mice; type: in vivo, mouse
# Protocol: In a xenograft tumor model of human gastric carcinoma, viable NCI-N87 (ATCC CRL-5822) cells were subcutaneously (SC) implanted (2.5×10^6 cells/mL with matrigel (1:1) at 0.2 mL/mouse) into the right flank of female nu/nu mice. Tumor implanted mice were divided into seven treatment groups, each group containing eight animals, and one group containing five animals, and dose administrations were initiated one day after cell implantation (denoted as Day 1).
# Female nude (nu/nu) mice aged 5-6 weeks obtained from BioLasco Taiwan (under Charles River Laboratories Licensee) were used. The animals were housed in individually ventilated cages (IVC, 36 Mini Isolator system). The allocation for 3 animals was 27×20×14 in cm. All animals were maintained in a hygienic environment under controlled temperature (20-24° C.) and humidity (30%-70%) with 12-hour light/dark cycle. Free access to standard lab diet [MFG (Oriental Yeast Co., Ltd., Japan)] and autoclaved tap water in bottles were granted. All aspects of this work including housing, experimentation, and animal disposal were performed in general accordance with the “Guide for the Care and Use of Laboratory Animals: Eighth Edition” (National Academies Press, Washington, D.C., 2011) in our AAALAC-accredited laboratory animal facility. In addition, the animal care and use protocol was reviewed and approved by the IACUC at Eurofins Panlabs Taiwan, Ltd.
# The tumor volumes, body weights, mortality, and signs of overt toxicity were monitored and recorded twice weekly for 100 days. Tumor growth inhibition was calculated as T/C (treatment/control)×100%. A T/C value≤42% compared to that of the vehicle control group was considered significant anti-tumor activity. Two-way ANOVA followed by Bonferroni test was used to ascertain the statistically significant significance of groups compared to respective vehicle control (*p<0.05).
# [3] = 0.191 mg/kg IP once weekly for four weeks, single agent, Day 37
# [4] = 0.191 mg/kg × 4 IP once weekly, group mean
# [5] = 0.191 mg/kg × 4 IP once weekly, individual mouse
smiles,measurement,setting,value
"CC[C@H](C)[C@@H]([C@@H](CC(=O)N1CCC[C@H]1[C@H](OC)[C@@H](C)C(=O)N[C@H](C)[C@@H](O)c1ccccc1)OC)N(C)C(=O)[C@@H](NC(=O)[C@@H](NC)C(C)C)C(C)C [MMAE, monomethyl auristatin E] (H-[NMeV]V[Dil][Dolaproine]-X1)",antitumor activity (in words),"[1]; 0.191 mg/kg IP once weekly for four weeks, single agent",minor antitumor activity
same,T/C,[1]; [3],75.8%
same,TGI,[1]; [3],25.2%
same,mean tumor size,[1]; [3],"1,644 mm^3"
same,"Tumor Volume (mm^3), Mean",[1]; Day 0,85 mm^3
same,Tumor Volume (mm^3),[1]; Day 0,58 mm^3 and 53 mm^3 and 132 mm^3 and 72 mm^3 and 86 mm^3 and 116 mm^3 and 71 mm^3 and 91 mm^3
same,"Tumor Volume (mm^3), Mean",[1]; Day 3,114 mm^3
same,Tumor Volume (mm^3),[1]; Day 3,128 mm^3 (2×) and 76 mm^3 and 148 mm^3 and 82 mm^3 and 158 mm^3 and 57 mm^3 and 137 mm^3
same,"Tumor Volume (mm^3), Mean",[1]; Day 7,134 mm^3
same,Tumor Volume (mm^3),[1]; Day 7,104 mm^3 and 114 mm^3 and 177 mm^3 and 144 mm^3 and 97 mm^3 and 167 mm^3
same,"Tumor Volume (mm^3), Mean",[1]; Day 10,245 mm^3
same,Tumor Volume (mm^3),[1]; Day 10,444 mm^3 and 196 mm^3 and 219 mm^3 and 160 mm^3 and 207 mm^3
same,"Tumor Volume (mm^3), Mean",[1]; Day 14,385 mm^3
same,Tumor Volume (mm^3),[1]; Day 14,429 mm^3 and 418 mm^3 (2×) and 268 mm^3 and 390 mm^3
same,"Tumor Volume (mm^3), Mean",[1]; Day 17,464 mm^3
same,Tumor Volume (mm^3),[1]; Day 17,590 mm^3 and 452 mm^3 and 510 mm^3 and 321 mm^3 and 448 mm^3
same,"Tumor Volume (mm^3), Mean",[1]; Day 21,551 mm^3
same,Tumor Volume (mm^3),[1]; Day 21,649 mm^3 and 692 mm^3 and 581 mm^3 and 383 mm^3 and 451 mm^3
same,"Tumor Volume (mm^3), Mean",[1]; Day 24,672 mm^3
same,Tumor Volume (mm^3),[1]; Day 24,748 mm^3 and 705 mm^3 and 822 mm^3 and 511 mm^3 and 571 mm^3
same,"Tumor Volume (mm^3), Mean",[1]; Day 28,858 mm^3
same,Tumor Volume (mm^3),[1]; Day 28,1080 mm^3 and 888 mm^3 and 913 mm^3 and 623 mm^3 and 785 mm^3
same,"Tumor Volume (mm^3), Mean",[1]; Day 31,1194 mm^3
same,Tumor Volume (mm^3),[1]; Day 31,1174 mm^3 and 1340 mm^3 and 1439 mm^3 and 1030 mm^3 and 989 mm^3
same,"Tumor Volume (mm^3), Mean",[1]; Day 35,1449 mm^3
same,Tumor Volume (mm^3),[1]; Day 35,1650 mm^3 and 1656 mm^3 and 1496 mm^3 and 1236 mm^3 and 1208 mm^3
same,"Tumor Volume (mm^3), Mean",[1]; Day 37,1644 mm^3
same,Tumor Volume (mm^3),[1]; Day 37,1652 mm^3 and 1963 mm^3 and 1828 mm^3 and 1196 mm^3 and 1580 mm^3
same,Mortality (animal entered as died in tumor volume table),"[2]; 0.191 mg/kg × 4 IP (Once weekly), mouse No. 6, Day 57-Day 100",died
same,"Body Weight Day 1, Mean",[2]; [4],21.9 g
same,"Body Weight Day 4, Mean",[2]; [4],20.4 g
same,"Body Weight Day 8, Mean",[2]; [4],22.1 g
same,"Body Weight Day 11, Mean",[2]; [4],22.6 g
same,"Body Weight Day 15, Mean",[2]; [4],23.4 g
same,"Body Weight Day 18, Mean",[2]; [4],23.6 g
same,"Body Weight Day 25, Mean",[2]; [4],24.0 g
same,"Body Weight Day 32, Mean",[2]; [4],25.1 g
same,"Body Weight Day 36, Mean",[2]; [4],25.1 g
same,"Body Weight Day 50, Mean",[2]; [4],26.0 g
same,Body Weight Day 1,[2]; [5],20 g (2×) and 22 g (3×) and 24 g (2×) and 21 g
same,Body Weight Day 4,[2]; [5],18 g and 19 g (2×) and 22 g and 21 g and 20 g and died and 24 g
same,Body Weight Day 8,[2]; [5],22 g (3×) and 23 g (2×) and died and 24 g and 19 g
same,Body Weight Day 11,[2]; [5],22 g (2×) and 23 g (2×) and 25 g and 24 g and died and 19 g
same,Body Weight Day 15,[2]; [5],24 g (2×) and 23 g (3×) and 25 g and died and 22 g
same,Body Weight Day 18,[2]; [5],24 g (3×) and 22 g (2×) and 23 g and 26 g and died
same,Body Weight Day 22,[2]; [5],24 g (3×) and 22 g and 25 g (3×) and died
same,Body Weight Day 25,[2]; [5],24 g (4×) and 22 g and 25 g (2×) and died
same,Body Weight Day 29,[2]; [5],25 g (3×) and 24 g and 26 g (3×) and died
same,Body Weight Day 32,[2]; [5],25 g (2×) and 23 g and 24 g and 27 g and 26 g (2×) and died
same,Body Weight Day 36,[2]; [5],26 g (2×) and 24 g and 25 g (4×) and died
same,Body Weight Day 39,[2]; [5],26 g (6×) and 24 g and died
same,Body Weight Day 43,[2]; [5],26 g (6×) and 24 g and died
same,Body Weight Day 46,[2]; [5],26 g (3×) and 25 g and 27 g (3×) and died
same,Body Weight Day 50,[2]; [5],26 g (4×) and 24 g and 27 g (2×) and died
same,Body Weight Day 53,[2]; [5],27 g (4×) and 24 g and died and 26 g and 28 g
same,Mortality (animal recorded as died in tumor volume table),"[2]; animal No. 6, Day 4-Day 25, 0.191 mg/kg × 4 IP once weekly",died
